Measurements reported in publication PMC10928712, “High Target Homology Does Not Guarantee Inhibition: Aminothiazoles Emerge as Inhibitors of Plasmodium falciparum” (ACS Infectious Diseases, 2024).
In brackets after ≈: the same amount, converted by molar mass. Read-outs that look alike come from different tables or passages of the source.

Legend:
P. falciparum 3D7 [1] = tested on: P. falciparum 3D7; design: method as in earlier work; details: Novartis HTS 2008; ref (21); cited from earlier work
P. falciparum W2 = tested on: P. falciparum W2; design: method as in earlier work; details: Novartis HTS 2008; ref (21); cited from earlier work
[2] = tested on: Huh7 (human hepatoma cells); details: cited from earlier work
P. falciparum 3D7 [3] = experiment: Method I growth-inhibition assay (SYBR Green I, 96 h); type: cell-based; details: Plasmodium falciparum
Source text: Nonlinear regression as implemented in GraphPad Prism 7.00 (log(inhibitor) vs response – variable slope (four parameters)) was used to fit the measured data to interpolate the IC50 value from the curve. No specific model was applied. Data was preprocessed by normalizing according to the following formula: […]
(§1) eq 1: Fluorescence data normalization [drawing 2] where y is the fluorescence signal in each well, yminimum is the background fluorescence, and ymaximum is the highest measured fluorescence signal in the untreated wells. Drug concentrations (in μM) were transformed to the log(10)of the values. Means of each independent experiment were plotted as individual values, and the SD of the mean from the means shown as error bars. […] In case of transgenic cell lines, the built-in comparison Akaike’s information criteria (AICc) method was applied to the Log IC50s of the different cell lines. The test calculates a percentage probability of the simpler model “Log IC50 is the same for datasets” being correct. The test for homoscedasticity was performed to confirm if no weighting of values was appropriate.

P. falciparum 3D7 [4] = experiment: Method II growth-inhibition assay (PicoGreen, 3 days), 3D7; type: cell-based; details: Plasmodium falciparum, 3D7, method II
Source text: (§2) Fidock (Columbia University).

P. falciparum NF54 = experiment: Method II growth-inhibition assay (PicoGreen, 3 days), NF54; type: cell-based; details: Plasmodium falciparum; chloroquine-sensitive NF54, method II
Source text: as §2

P. falciparum 3D7 [5] = experiment: Method III growth inhibition assay (HRP2-ELISA, 3 days), 3D7; type: cell-based, Plasmodium falciparum
P. falciparum Dd2 = experiment: Method III growth inhibition assay (HRP2-ELISA, 3 days), Dd2; type: cell-based, Plasmodium falciparum; details: Plasmodium falciparum, DD2, chloroquine-resistant Dd2, method III
Hep G2 cells = experiment: Hep G2 viability assay (counter screen); type: cell-based, human; details: Homo sapiens, HepG2, 48 h, cytotoxicity, 48 h
Protocol: HepG2 cells (2 × 10^5 cells per well) were seeded in 24-well, flat-bottomed plates. Culturing of cells, incubations, and OD measurements were performed as described previously with small modifications.[58] 24 h after seeding the cells, the incubation was started by the addition of compounds in a final DMSO concentration of 1%. The metabolic activity of the living cell mass was determined after 48 h. At least three independent measurements were performed for each compound. The IC50 values were determined during logarithmic growth using GraphPad Prism software. All experiments were performed at least in triplicate, and data reported represent the mean ± SD.

[6] = Metabolic stability in human liver S9 fraction; type: in vitro ADME; details: 1 μM compound; for half-life at 1 μM: human, pooled liver S9 fraction
Protocol: For the evaluation of combined phase I and phase II metabolic stability, the compound (1 μM) was incubated with 1 mg/mL pooled liver S9 fraction (XenoTech), 2 mM NADPH, 1 mM UDPGA, 10 mM MgCl2, 5 mM GSH, and 0.1 mM PAPS at 37 °C for 0, 5, 15, 30, and 60 min. The metabolic stabilities of testosterone (1 μM), verapamil (1 μM), and propranolol (1 μM) were determined in parallel to confirm the enzymatic activity of the S9 fraction. The incubation was stopped by precipitation of S9 enzymes with two volumes of cold acetonitrile containing internal standard (150 nM diphenhydramine). Samples were stored on ice for 10 min, and precipitated protein was removed by centrifugation (15 min, 4 °C, 4000 rpm). The concentration of the remaining test compound at the different time points was analyzed by LC-MS/MS (TSQ Quantum Access MAX, Thermo Fisher, Dreieich, Germany) and used to determine half-life (t1/2).

[7] = Kinetic solubility determination; type: physicochemical; details: PBS with 2% DMSO, aqueous buffer, kinetic from dmso stock, PBS buffer and 2% DMSO; read-out: Max. solubility
Protocol: The desired compounds were sequentially diluted in DMSO in a 96-well plate. 3 μL of each well was transferred into another 96-well plate and mixed with 147 μL of PBS. Plates were shaken for 5 min at 600 rpm at room temperature (r.t.), and the absorbance at 620 nm was measured. Absorbance values were normalized by blank subtraction and plotted using GraphPad Prism 8.4.2 (GraphPad Software, San Diego, California, USA). Solubility (S) was determined based on the First X value of AUC function using a threshold of 0.005.

P. falciparum 3D7-DXPS+ = experiment: Growth inhibition of PfDXPS overexpressing parasites (3D7-DXPS+); type: cell-based; details: Plasmodium falciparum, 3D7, read-out: PfDXPS IC50
Source text: (§3) The open reading frame (ORF) encoding 1-deoxy-D-xylulose-5-phosphate synthase (PfDXPS; PF3D7_1337200) was amplified from genomic DNA isolated from unsynchronized P. falciparum 3D7 cultures using the Platinum PCR SuperMix High Fidelity (Invitrogen). Forward and reverse primers contained restriction sites for KpnI and AvrII in sense and antisense orientation, respectively (oligonucleotides pfDXPS-Kpn1-S: […]; pfDXPSmyc-Avr2-AS: […] ). PCR products and the transfection vector pARL1a-hDHFR PfARG-GFP were digested with KpnI and AvrII, purified (Gel extraction Kit and PCR purification kit; Qiagen), and cloned into the transfection vector yielding the construct for overexpression pARL-DXS-strep. XL 10-Gold E. coli ultracompetent cells (Agilent Technologies) were transformed with the generated construct to amplify the plasmid and colonies checked using restriction analysis and sequencing of the plasmid. Bacterial clones carrying the overexpression construct and the empty pARL1a vector (MOCK plasmid) were amplified in overnight cultures, isolated (Plasmid Maxi Kit; QIAGEN), and subsequently used to transfect P. falciparum 3D7 ring-stage parasites, as already described.[59] Briefly, 120 μg of plasmid DNA was centrifuged and air-dried, and the pellet was resuspended in TE buffer and cytomix reagent and mixed with the P. falciparum culture. Parasites were transfected using electroporation and selected with WR 99210. The generation and characterization of the PfTPK overexpression cell line has been reported before.[60]
(§4) P. falciparum cultures were treated as described in method I. For target specification toward PfTPK and PfDXPS, compounds were tested in comparison against overexpressing cell lines and the respective MOCK line containing only the transfected vector backbone. Parasite viability/proliferation was determined.

[8] = tested on: P. falciparum 3D7 MOCK cell line; experiment: Growth inhibition of MOCK cell line (vector backbone only); type: cell-based; details: Plasmodium falciparum, 95% CI in brackets
Source text: as §3, §4

P. falciparum 3D7-TPK+ = experiment: Growth inhibition of PfTPK overexpressing parasites (3D7-TPK+); type: cell-based; details: Plasmodium falciparum, 3D7, read-out: PfTPK IC50
Protocol: as §4, with “determined. Analysis of the IC50 values and interpretation of the curves was performed, as described in Section 4.1.2.44.” for “determined.”
as §1

M. tuberculosis DXPS = target: M. tuberculosis DXPS; design: method as in PMID 36320685; details: Morrison inhibition constant, slow-, tight-binding; read-out: Ki* MtDXPS; cited from earlier work
[9] = tested on: Mycobacterium tuberculosis H37Rv strain; design: method as in PMID 36320685; details: cited from earlier work
[10] = tested on: blood-stage P. falciparum 3D7; details: Plasmodium falciparum
[11] = 95% CI in brackets, read-out: IC50 B
[12] = 3D7, method III (HRP2 assay), drc package of R, read-out: IC50 P. falciparum 3D7 (method III)
[13] = Plasmodium falciparum, 3D7, 3D7, method III (HRP2 assay), drc package of R, read-out: IC50 P. falciparum 3D7 (method III)
[14] = Plasmodium falciparum, 3D7, 3D7, method III, nonlinear regression as in Figure 2, 95% CI in brackets, read-out: IC50 C
[15] = 3D7, read-out: MOCK IC50, MOCK compared with 3D7-DXPS+
[16] = 3D7, read-out: MOCK IC50, MOCK compared with 3D7-TPK+, single measurement

Row | SMILES | IC50 (P. falciparum 3D7 [3]; 3D7, read-out: IC50 3D7-I) [µM] | IC50 (P. falciparum 3D7 [3]; 3D7, read-out: IC50 A [μM]) [µM] | IC50 (P. falciparum 3D7 [4]; [11]) [µM] | IC50 (P. falciparum 3D7 [4]; read-out: IC50 3D7-II) [µM] | IC50 (P. falciparum NF54) [µM] | IC50 (P. falciparum 3D7 [5]; [12]) [µM] | IC50 (P. falciparum 3D7 [5]; [13]) [µM] | IC50 (P. falciparum 3D7 [5]; [14]) [µM] | IC50 (P. falciparum Dd2) [µM] | IC50 (Hep G2 cells) [µM] | half-life at 1 μM [6] [min] | IC50 (P. falciparum 3D7-DXPS+) [µM] | IC50 [8, 15] [µM] | IC50 [8, 16] [µM] | IC50 (P. falciparum 3D7-TPK+) [µM] | Ki (M. tuberculosis DXPS) [µM] | MIC [9] [µM] | IC50 [10] [µM] | also measured
1 | COC(C(=NO)c1ccc(Cl)cc1)c1ccccc1 (centres unmarked) [CHEMBL581471] | – | – | – | – | – | – | – | – | – | – | – | – | – | – | – | – | – | – | EC50 (P. falciparum 3D7 [1]): > 0.912 µM; EC50 (P. falciparum W2): > 1.61 µM; Huh7 inhibition [2]: > 10 µM
2 | ON=C(Cc1ccc(Cl)cc1)c1ccc(O)cc1O [compound 2] | 81 ± 3 | 74.2 | 43.8 | 42 ± 4 | 41 ± 10 | 94 ± 8 | 93.8 ± 8 | ~46 | 89 ± 31 | > 50 | 28 | 110 | 110 | 90.4 | 90.4 | 0.27 ± 0.02 | 10 (≈ 2.78 µg/mL) | 44 to 74 | t1/2 [6]: 29 ± 0.7 min; solubility at 5 min [7]: 114 ± 6.7 µM (≈ 31.7 µg/mL)
3 | OCc1cn(Cc2ccc(Cl)c(Cl)c2)c2ccccc12 [compound 3] | 25 ± 3 | 21.4 | 17.1 | 17 ± 2 | 15 ± 2 | 24 ± 6 | 23.6 ± 6.4 | 7.9 | 13 ± 9 | 0.8 ± 0.2 | 10 ± 0.4 | 17.9 | 17.9 | 23.8 | 21.1 | 1.29 ± 0.2 | 10 (≈ 3.06 µg/mL) | 8 to 21 | –
